Here are results for 25 compounds from patent US10494366B2, “Pesticidally active amide heterocyclic derivatives with sulphur containing substituents” (Syngenta Participations AG, priority 2014, dated 2019).

One may read the mortality as the share of the test organisms that died. High values mean fewer survivors, low ones more survivors.

Holding throughout (format): in vivo
The subject of assay [1] is Spodoptera littoralis (Egyptian cotton leaf worm). The assay is described as follows: Example B2: Spodoptera littoralis, systemic test via lettuce roots in agar. The following applies: 144 h, application rate 12.5 ppm, Spodoptera eggs, 6 days after infestation, read-out: control in at least one of the three categories (mortality, anti-feedancy or growth inhibition). The text has this: Test compounds were applied by pipette from 10,000 ppm DMSO stock solutions into 24-well plates and mixed with agar. Lettuce seeds were placed on the agar and the multi well plate was closed by another plate which contains also agar. After 7 days the roots have absorbed the compound and the lettuce has grown into the lid plate. The lettuce leafs were now cut off into the lid plate. Spodoptera eggs were pipetted through a plastic stencil on a humid gel blotting paper and the plate closed with it. The samples were assessed for mortality, anti-feedant effect and growth inhibition in comparison to untreated samples 6 days after infestation.
The following compounds gave an effect of at least 80% control in at least one of the three categories (mortality, anti-feedancy or growth inhibition) at an application rate of 12.5 ppm: P2, P3, P8, P9, P11 and P17, P19, P20, P22, P23, P25, P26, P28, P30, P31, P32, P33, P40, P42, P43, P44, P45, P46, P47, P48, P49, P50, P51, P52, P53, P54, P60 and P61.

The subject of assay [2] is Diabrotica balteata (corn root worm). The assay is described as follows: Example B4: Diabrotica balteata, sprayed maize sprouts. The following applies: 96 h, application rate 200 ppm, L2 larvae, 4 days after infestation, read-out: effect in at least one of the two categories (mortality or growth inhibition). Here is the method:
Maize sprouts, placed on an agar layer in 24-well microtiter plates were treated with aqueous test solutions prepared from 10,000 ppm DMSO stock solutions by spraying. After drying, the plates were infested with L2 larvae (6 to 10 per well). The samples were assessed for mortality and growth inhibition in comparison to untreated samples 4 days after infestation.

The subject of assay [3] is Plutella xylostella (diamond back moth). The assay is described as follows: Example B3: Plutella xylostella, treated artificial diet. The following applies: 120 h, application rate 200 ppm, L2 larvae, 5 days after infestation, read-out: effect in at least one of the two categories (mortality or growth inhibition). Here is the method:
24-well microtiter plates with artificial diet were treated with aqueous test solutions prepared from 10,000 ppm DMSO stock solutions by pipetting. After drying, the plates were infested with L2 larvae (10 to 15 per well). The samples were assessed for mortality and growth inhibition in comparison to untreated samples 5 days after infestation.

The subject of assay [4] is Euschistus heros (neotropical brown stink bug). Description: Example B6: Euschistus heros, sprayed soybean leaf. The following applies: 120 h, application rate 200 ppm, N-2 nymphs, 5 days after infestation. The source says: Soybean leaf on agar in 24-well microtiter plates were sprayed with aqueous test solutions prepared from 10,000 ppm DMSO stock solutions. After drying the leaf were infested with N-2 nymphs.

Assay [5] deals with Spodoptera littoralis (Egyptian cotton leaf worm). Description: Example B1: Spodoptera littoralis, sprayed cotton leaf discs. The following applies: foliar, 72 h, application rate 200 ppm, L1 larvae, 3 days after infestation, read-out: control in at least one of the three categories (mortality, anti-feedancy or growth inhibition). Here is the method: Cotton leaf discs were placed on agar in 24-well microtiter plates and sprayed with aqueous test solutions prepared from 10,000 ppm DMSO stock solutions. After drying the leaf discs were infested with five L1 larvae. The samples were assessed for mortality, anti-feedant effect, and growth inhibition in comparison to untreated samples 3 days after infestation. Control of Spodoptera littoralis by a test sample is when at least one of mortality, anti-feedant effect, and growth inhibition is higher than the untreated sample.

For `CCS(=O)(=O)c1cc(-c2cccc(SC)c2)cnc1C(=O)/N=c1\sc(C(F)(F)F)nn1C` [Compound P30], the percent control (mortality, anti-feedant effect or growth inhibition) at 12.5 ppm in assay [1] was at least 80%. The percent effect (mortality or growth inhibition) at 200 ppm in assay [2] was at least 80%.
Regarding `CCS(=O)(=O)c1cc(-c2ccc(C#N)cn2)cnc1C(=O)/N=c1\sc(C(F)(F)F)nn1C` [Compound P69], the percent effect (mortality or growth inhibition) at 200 ppm in assay [3] and in assay [2] was at least 80% in each case. In assay [4], this compound returned a mortality at 200 ppm of at least 80%. In assay [5], the percent control (mortality, anti-feedant effect or growth inhibition) at 200 ppm is at least 80%.
Consider `CCS(=O)(=O)c1cc(-n2ccc(C(F)(F)F)n2)cnc1C(=O)/N=c1\sc(C(F)(F)C(F)(F)F)nn1C` [Compound P9, (N)-3-ethylsulfonyl-N-[3-methyl-5-(1,1,2,2,2-pentafluoroethyl)-1,3,4-thiadiazol-2-ylidene]-5-[3-(trifluoromethyl)pyrazol-1-yl]pyridine-2-carboxamide], for which the percent effect (mortality or growth inhibition) at 200 ppm in assay [3] and in assay [2] was at least 80% each time. Besides, the percent control (mortality, anti-feedant effect or growth inhibition) at 12.5 ppm in assay [1] was at least 80%. Also, in assay [5], the percent control (mortality, anti-feedant effect or growth inhibition) at 200 ppm is at least 80%.
For `CCS(=O)(=O)c1cc(-c2ccc(Cl)cc2Cl)cnc1C(=O)/N=c1\sc(C(F)(F)F)nn1C` [Compound P34], the percent effect (mortality or growth inhibition) at 200 ppm in assay [3] and in assay [2] was at least 80% throughout. The compound also displayed a mortality at 200 ppm in assay [4] of at least 80%. Also, the percent control (mortality, anti-feedant effect or growth inhibition) at 200 ppm in assay [5] was at least 80%.
As to `CCS(=O)(=O)c1cc(-c2ccc(F)cc2)cnc1C(=O)/N=c1\sc(C(F)(F)F)nn1C` [Compound P32], the percent effect (mortality or growth inhibition) at 200 ppm in assay [3] and in assay [2] was at least 80% throughout. For the same compound, in assay [1], the percent control (mortality, anti-feedant effect or growth inhibition) at 12.5 ppm is at least 80%. For the same compound, the mortality at 200 ppm in assay [4] was at least 80%. Also, the percent control (mortality, anti-feedant effect or growth inhibition) at 200 ppm in assay [5] is at least 80%.
As for `CCSc1cc(-n2ccc(C(F)(F)F)n2)cnc1C(=O)/N=c1\sc(C(F)(F)F)nn1C` [Compound P13], in assay [2], the percent effect (mortality or growth inhibition) at 200 ppm was at least 80%.
In the case of `CCS(=O)(=O)c1cc(-c2cccc(C(F)(F)F)n2)cnc1C(=O)/N=c1\sc(C(F)(F)F)nn1C` [Compound P44], the percent effect (mortality or growth inhibition) at 200 ppm in assay [3] and in assay [2] was at least 80% throughout. The percent control (mortality, anti-feedant effect or growth inhibition) at 12.5 ppm in assay [1] was at least 80%. Also, in assay [4], the mortality at 200 ppm is at least 80%. In assay [5], the percent control (mortality, anti-feedant effect or growth inhibition) at 200 ppm is at least 80%.
Consider `CCS(=O)(=O)c1cc(-n2ccc(C(F)(F)F)n2)cnc1C(=O)/N=c1\sc(C(F)(F)F)nn1C` [Compound P14], for which the percent effect (mortality or growth inhibition) at 200 ppm in assay [3] and in assay [2] was at least 80% throughout. Further, the percent control (mortality, anti-feedant effect or growth inhibition) at 200 ppm in assay [5] was at least 80%.
Regarding `CCS(=O)(=O)c1cc(-c2cc(Cl)c(F)c(Cl)c2)cnc1C(=O)/N=c1\sc(C(F)(F)F)nn1C` [Compound P27], the percent effect (mortality or growth inhibition) at 200 ppm in assay [3] and in assay [2] was at least 80% throughout. Moreover, the percent control (mortality, anti-feedant effect or growth inhibition) at 200 ppm in assay [5] is at least 80%.
Consider `CCS(=O)(=O)c1ccc(-c2ccc(C(F)(F)F)cc2)nc1C(=O)/N=c1\sc(C(F)(F)F)nn1C` [Compound P21, (N)-3-ethylsulfonyl-N-[3-methyl-5-(trifluoromethyl)-1,3,4-thiadiazol-2-ylidene]-6-[4-(trifluoromethyl)phenyl]pyridine-2-carboxamide], for which the percent control (mortality, anti-feedant effect or growth inhibition) at 200 ppm in assay [5] was at least 80%.
Consider `CCS(=O)(=O)c1cc(-c2ncc(C#N)cn2)cnc1C(=O)/N=c1\sc(C(F)(F)F)nn1C` [Compound P68], for which the percent effect (mortality or growth inhibition) at 200 ppm in assay [3] and in assay [2] was at least 80% in each case. In assay [4], this compound returned a mortality at 200 ppm of at least 80%.
Consider `CCS(=O)(=O)c1cc(-c2cc(Cl)cc(Cl)c2)cnc1C(=O)/N=c1\sc(C(F)(F)F)nn1C` [Compound P24], for which, in assay [5], the percent control (mortality, anti-feedant effect or growth inhibition) at 200 ppm was at least 80%.
On to `CCS(=O)(=O)c1cc(-c2cccc(C(F)(F)F)c2)cnc1C(=O)/N=c1\sc(C(F)(F)F)nn1C` [Compound P37], for which the percent effect (mortality or growth inhibition) at 200 ppm in assay [3] and in assay [2] was at least 80% each time. In addition, the percent control (mortality, anti-feedant effect or growth inhibition) at 200 ppm in assay [5] was at least 80%.
`CCS(=O)(=O)c1cc(-c2cc(F)cc(F)c2)cnc1C(=O)/N=c1\sc(C(F)(F)C(F)(F)F)nn1C` [Compound P67]: the percent effect (mortality or growth inhibition) at 200 ppm in assay [3] and in assay [2] was at least 80% throughout. The same compound had a mortality at 200 ppm in assay [4] of at least 80%.
In the case of `CCS(=O)(=O)c1cc(-c2cc(F)cc(F)c2)cnc1C(=O)/N=c1\sc(C(F)(F)F)nn1C` [Compound P35], the percent effect (mortality or growth inhibition) at 200 ppm in assay [3] and in assay [2] was at least 80% in each case. Further, the percent control (mortality, anti-feedant effect or growth inhibition) at 200 ppm in assay [5] was at least 80%.
`CCS(=O)(=O)c1cc(-c2ccc(OC(F)(F)F)cc2)cnc1C(=O)/N=c1\sc(C(F)(F)F)nn1C` [Compound P22]: the percent effect (mortality or growth inhibition) at 200 ppm in assay [3] and in assay [2] was at least 80% each time. The percent control (mortality, anti-feedant effect or growth inhibition) at 12.5 ppm in assay [1] is at least 80%. Moreover, the percent control (mortality, anti-feedant effect or growth inhibition) at 200 ppm in assay [5] was at least 80%.
In the case of `CCS(=O)(=O)c1cc(-c2ccc(SC)cc2)cnc1C(=O)/N=c1\sc(C(F)(F)F)nn1C` [Compound P38], the percent effect (mortality or growth inhibition) at 200 ppm in assay [3] and in assay [2] was at least 80% in each case. Besides, the percent control (mortality, anti-feedant effect or growth inhibition) at 200 ppm in assay [5] is at least 80%.
Turning to `CCSc1cc(-c2ccc(C(F)(F)F)cc2)cnc1C(=O)N=c1ccc(SC(F)(F)F)cn1C` [Compound P15], in assay [2], the percent effect (mortality or growth inhibition) at 200 ppm is at least 80%.
With `CCS(=O)(=O)c1cc(-c2cc(C#N)ccn2)cnc1C(=O)/N=c1\sc(C(F)(F)F)nn1C` [Compound P62], the percent effect (mortality or growth inhibition) at 200 ppm in assay [3] is at least 80%. Besides, the mortality at 200 ppm in assay [4] is at least 80%. Further, the percent control (mortality, anti-feedant effect or growth inhibition) at 200 ppm in assay [5] is at least 80%.
On to `CCS(=O)(=O)c1cc(-c2ncc(C(F)(F)F)s2)cnc1C(=O)/N=c1\sc(C(F)(F)F)nn1C` [Compound P58], for which the percent effect (mortality or growth inhibition) at 200 ppm in assay [2] is at least 80%. Moreover, the percent control (mortality, anti-feedant effect or growth inhibition) at 200 ppm in assay [5] is at least 80%.
Turning to `CCS(=O)(=O)c1cc(-c2ccc(Cl)c(Cl)c2)cnc1C(=O)/N=c1\sc(C(F)(F)F)nn1C` [Compound P36], the percent effect (mortality or growth inhibition) at 200 ppm in assay [3] and in assay [2] was at least 80% each time. Besides, the percent control (mortality, anti-feedant effect or growth inhibition) at 200 ppm in assay [5] was at least 80%.
Take `CCS(=O)(=O)c1ccc(-c2cnc(C(=O)/N=c3\sc(C(F)(F)F)nn3C)c(S(=O)(=O)CC)c2)cc1` [Compound P4]: the percent effect (mortality or growth inhibition) at 200 ppm in assay [3] and in assay [2] was at least 80% throughout. Also, the percent control (mortality, anti-feedant effect or growth inhibition) at 200 ppm in assay [5] was at least 80%.
Regarding `CCS(=O)(=O)c1cc(-c2ncc(Cl)cn2)cnc1C(=O)/N=c1\sc(C(F)(F)F)nn1C` [Compound P65], the percent effect (mortality or growth inhibition) at 200 ppm in assay [3] and in assay [2] was at least 80% throughout. The compound also returned a mortality at 200 ppm in assay [4] of at least 80%. Moreover, the percent control (mortality, anti-feedant effect or growth inhibition) at 200 ppm in assay [5] is at least 80%.
Take `CCSc1cc(-c2ccc(Cl)cc2)cnc1C(=O)/N=c1\sc(C(F)(F)C(F)(F)F)nn1C` [Compound P12]: in assay [2], the percent effect (mortality or growth inhibition) at 200 ppm is at least 80%.
`CCS(=O)(=O)c1cc(-c2cc(Cl)ccn2)cnc1C(=O)/N=c1\sc(C(F)(F)F)nn1C` [Compound P41]: the percent effect (mortality or growth inhibition) at 200 ppm in assay [3] and in assay [2] was at least 80% each time. Also, in assay [4], the mortality at 200 ppm is at least 80%. Also, the percent control (mortality, anti-feedant effect or growth inhibition) at 200 ppm in assay [5] is at least 80%.
